# Measurements published in PMC10410440, “Preclinical PK investigation of a novel IDO1/TDO dual inhibitor—SHR9146 in mouse plasma and tissues by LC-MS/MS” (Frontiers in Oncology, 2023).
# Read-outs that look alike come from different tables or passages of the source.
# Assay: Plasma pharmacokinetics of SHR9146 in mice (LC-MS/MS, non-compartmental analysis)
# Format: in vivo, ICR mice
# Settings: for MRT inf: read-out: MRT0-∞
# Method: ICR mice with body weight 16–26 g were supplied by Shanghai Lingchang Biotechnology Co., Ltd. (animal breeding license number SCXK (Shanghai) 2013-0018) and housed at Shanghai Institute of Materia Medica, Chinese Academy of Sciences [animal use license number SYXK (Shanghai) 2015-0027]. The mice used in this study were fasted overnight for 12 h but had free access to water. Food was supplied 4 h post-dose. All experiments in this study were conducted in accordance with the Guidelines for the Care and Use of Laboratory Animals of Shanghai Institute of Materia Medica, Chinese Academy of Sciences.
# A total of 30 mice were randomly assigned into five groups with equal numbers, males and females. One group was intravenously administrated with 5 mg/kg SHR9146 dissolved in […] plus 95% saline (adjusted pH to 4.0) under sterile conditions. The remaining four groups were administered respectively with a single dose of 20 , 40, or 80 mg/kg or multiple doses of 20 mg/kg twice daily for 7 days, by oral gavage of SHR9146 dissolved in 0.5% CMC-Na. Blood samples were obtained from the fossa orbitalis vein at 15 and 30 min and 1.0, 2.0, 4.0, 6.0, 8.0, 10.0, and 24.0 h after oral gavage administration. An additional 5-min time point was included for iv injection, as well as the pre-drug administration time points on the fifth, sixth, and seventh days in the multiple-dose group. The blood samples were collected in EDTA K2 anticoagulant blood collection tubes and centrifuged at 1,000 rpm for 5 min at 4°C. The supernatant plasma samples were thus produced.
# Briefly as follows, an aliquot of 25-μL plasma or tissue homogenate was spiked with 100 μL of internal standard solution (1 μg/mL for plasma, 0.2 μg/mL for tissue homogenate) and 300 μL of methanol added and vortex mixed for 60 s. The mixture was then centrifuged at 14,000 rpm at 4°C for 5.0 min, and the supernatant was diluted with methanol–water (4:1, v/v) in a ratio of 1:9 for the plasma or 1:1 for the tissue homogenate, and 5 μL of the resulting solution was injected for the LC-MS/MS analysis.
# The pharmacokinetic parameters of SHR9146 in mouse plasma were estimated by Phoenix 1.4 software using a non-compartmental model.
# The mean concentration–time curves of SHR9146 in mouse plasma after a single oral gavage dose of 20, 40, or 80 mg/kg, or a single intravenous dose of 5 mg/kg, or the 7th-day steady state after twice-daily multiple oral doses of 20 mg/kg are shown in Figure 5 (Table S6).
# [1] = 20 mg/kg i.g. single dose, all mice (Totol, 3 male + 3 female), plasma
# [2] = 20 mg/kg i.g. single dose, female mice, plasma
# [3] = 20 mg/kg i.g. single dose, male mice, plasma
# [4] = 20 mg/kg oral twice daily for 7 days vs single 20 mg/kg oral dose, mice
# [5] = 40 mg/kg i.g. single dose, male mice, plasma
# [6] = 80 mg/kg i.g. single dose, all mice (Totol, 3 male + 3 female), plasma
# [7] = 80 mg/kg i.g. single dose, female mice, plasma
# [8] = 80 mg/kg i.g. single dose, male mice, plasma
# [9] = ICR, mouse, iv, 5 mg/kg i.v. single dose, female mice, plasma
# [10] = ICR, mouse, iv, 5 mg/kg i.v. single dose, male mice, plasma
# [11] = both sexes, ICR, mouse, iv, 5 mg/kg i.v. single dose, all mice (Totol, 3 male + 3 female), plasma
# [12] = both sexes, ICR, mouse, plasma, intravenous, 5 mg/kg, 5 mg/kg i.v., read-out: plasma drug concentration, individual mice #1-#6
# [13] = both sexes, ICR, mouse, plasma, intravenous, 5 mg/kg, 5 mg/kg i.v., read-out: plasma drug concentration, mean (n=6)
# [14] = both sexes, ICR, mouse, plasma, oral, 20 mg/kg, 20 mg/kg i.g. bid, 7 days, 7th day, read-out: plasma drug concentration, individual mice #1-#6
# [15] = both sexes, ICR, mouse, plasma, oral, 20 mg/kg, 20 mg/kg i.g. bid, 7 days, 7th day, read-out: plasma drug concentration, mean (n=6)
# [16] = both sexes, ICR, mouse, plasma, oral, 20 mg/kg, 20 mg/kg i.g. single, read-out: plasma drug concentration, mean (n=6)
# [17] = both sexes, ICR, mouse, plasma, oral, 40 mg/kg, 40 mg/kg i.g. single, read-out: plasma drug concentration, mean (n=6)
smiles,measurement,setting,value
OCCn1cc(-c2ccc(N3CCC([C@H]4c5c(F)cccc5-c5cncn54)CC3)cc2)cn1 [SHR9146],"plasma drug concentration, individual mice #1-#6","5 mg/kg i.v., 4 h",BLQ
same,"plasma drug concentration, individual mice #1-#6","5 mg/kg i.v., 6 h",BLQ
same,"plasma drug concentration, individual mice #1-#6","5 mg/kg i.v., 8 h",BLQ
same,"plasma drug concentration, individual mice #1-#6","5 mg/kg i.v., 10 h",BLQ
same,"plasma drug concentration, individual mice #1-#6","5 mg/kg i.v., 24 h",BLQ
same,CL as share of the blood flow of mouse liver,"5 mg/kg i.v., liver blood flow around 90 mL/min/kg (ref 23)",13.3%
same,Vd as share of the total body fluid of mice,"5 mg/kg i.v., total body fluid around 0.725 L/kg (ref 23)",91.9%
same,CL,"20 mg/kg i.g. bid, 7 days (7th-day steady state), all mice (Totol, 3 male + 3 female), plasma",13.7 mL/min/kg
same,CL,"20 mg/kg i.g. bid, 7 days (7th-day steady state), female mice, plasma",13.7 mL/min/kg
same,CL,"20 mg/kg i.g. bid, 7 days (7th-day steady state), male mice, plasma",13.6 mL/min/kg
same,"plasma drug concentration, individual mice #1-#6","20 mg/kg i.g. bid, 7 days, 7th day, 0 h",BLQ
same,"plasma drug concentration, individual mice #1-#6","20 mg/kg i.g. bid, 7 days, 7th day, 8 h",BLQ
same,"plasma drug concentration, individual mice #1-#6","20 mg/kg i.g. bid, 7 days, 7th day, 10 h",BLQ
same,"plasma drug concentration, individual mice #1-#6","20 mg/kg i.g. bid, 7 days, 7th day, 24 h",BLQ
same,"plasma drug concentration, individual mice #1-#6","20 mg/kg i.g. bid, 7 days, Fifth day, pre-drug administration",BLQ
same,"plasma drug concentration, individual mice #1-#6","20 mg/kg i.g. bid, 7 days, Sixth day, pre-drug administration",BLQ
same,"plasma drug concentration, individual mice #1-#6","20 mg/kg i.g. single (dose cell empty, taken from the line above), 24 h",BLQ
same,CL,[1],20.5 mL/min/kg
same,Vd,[1],2.02 L/kg
same,CL,[2],18.6 mL/min/kg
same,Vd,[2],1.88 L/kg
same,CL,[3],22.8 mL/min/kg
same,Vd,[3],2.189 L/kg
same,"plasma drug concentration, individual mice #1-#6","20 mg/kg i.g. single, 4 h",BLQ
same,"plasma drug concentration, individual mice #1-#6","20 mg/kg i.g. single, 6 h",BLQ
same,"plasma drug concentration, individual mice #1-#6","20 mg/kg i.g. single, 8 h",BLQ
same,"plasma drug concentration, individual mice #1-#6","20 mg/kg i.g. single, 10 h",BLQ
same,steady-state AUC relative to single oral dose,[4],1.55 fold
same,steady-state Cmax relative to single oral dose,[4],1.08 fold
same,accumulation after multiple oral doses,"20 mg/kg oral twice daily for 7 days, mouse plasma",no significant accumulation
same,CL,[5],20.0 mL/min/kg
same,Vd,[5],3.07 L/kg
same,"plasma drug concentration, individual mice #1-#6","40 mg/kg i.g. single, 6 h",BLQ
same,"plasma drug concentration, individual mice #1-#6","40 mg/kg i.g. single, 8 h",BLQ
same,"plasma drug concentration, individual mice #1-#6","40 mg/kg i.g. single, 10 h",BLQ
same,"plasma drug concentration, individual mice #1-#6","40 mg/kg i.g. single, 24 h",BLQ
same,CL,[6],18.8 mL/min/kg
same,Vd,[6],5.19 L/kg
same,CL,[7],20.2 mL/min/kg
same,Vd,[7],4.00 L/kg
same,CL,[8],17.6 mL/min/kg
same,Vd,[8],6.22 L/kg
same,"plasma drug concentration, individual mice #1-#6","80 mg/kg i.g. single, 6 h",BLQ
same,"plasma drug concentration, individual mice #1-#6","80 mg/kg i.g. single, 8 h",BLQ
same,"plasma drug concentration, individual mice #1-#6","80 mg/kg i.g. single, 24 h",BLQ
same,clearance,[9],12.1 mL/min/kg
same,MRT inf,[9],0.882 h
same,Vd,"ICR, mouse, iv, 5 mg/kg i.v. single dose, female mice, plasma, read-out: Vd",0.638 L/kg
same,clearance,[10],12 mL/min/kg
same,MRT inf,[10],0.965 h
same,Vd,"ICR, mouse, iv, 5 mg/kg i.v. single dose, male mice, plasma, read-out: Vd",0.694 L/kg
same,concentration at 8 h,"ICR, mouse, plasma, intravenous, 5 mg/kg, 5 mg/kg i.v., 8 h, read-out: plasma drug concentration, individual mice #1-#6",149 ng/mL
same,MRT inf,"ICR, mouse, po, 20 mg/kg i.g. single dose, female mice, plasma",1.68 h
same,MRT inf,"ICR, mouse, po, 20 mg/kg i.g. single dose, male mice, plasma",1.6 h
same,MRT inf,"ICR, mouse, po, 40 mg/kg i.g. single dose, male mice, plasma",2.56 h
same,MRT inf,"ICR, mouse, po, 80 mg/kg i.g. single dose, female mice, plasma",3.29 h
same,MRT inf,"ICR, mouse, po, 80 mg/kg i.g. single dose, male mice, plasma",5.9 h
same,clearance,[11],12 mL/min/kg
same,MRT inf,[11],0.923 h
same,Vd,"both sexes, ICR, mouse, iv, 5 mg/kg i.v. single dose, all mice (Totol, 3 male + 3 female), plasma, read-out: Vd",0.666 L/kg
same,concentration at 0.083 h,[12],7880 ng/mL
same,concentration at 0.083 h,[13],6860 ng/mL
same,concentration at 0.25 h,[12],5210 ng/mL
same,concentration at 0.25 h,[13],5230 ng/mL
same,concentration at 0.5 h,[12],4530 ng/mL
same,concentration at 0.5 h,[13],3610 ng/mL
same,concentration at 1 h,[12],2450 ng/mL
same,concentration at 1 h,[13],2760 ng/mL
same,concentration at 2 h,[13],605 ng/mL
same,concentration at 4 h,"both sexes, ICR, mouse, plasma, intravenous, 5 mg/kg, 5 mg/kg i.v., 4 h, read-out: plasma drug concentration, mean (n=6)",126 ng/mL
same,AUC(0-inf),"both sexes, ICR, mouse, plasma, iv, 5 mg/kg, 5 mg/kg i.v. single dose, all mice (Totol, 3 male + 3 female), plasma",6930 ng·h/mL
same,AUC(0-t),"both sexes, ICR, mouse, plasma, iv, 5 mg/kg, 5 mg/kg i.v. single dose, all mice (Totol, 3 male + 3 female), plasma, read-out: AUC0-t",6760 ng·h/mL
same,half-life,"both sexes, ICR, mouse, plasma, iv, 5 mg/kg, 5 mg/kg i.v. single dose, all mice (Totol, 3 male + 3 female), plasma, read-out: t1/2 (converted)",0.713 h
same,half-life,"both sexes, ICR, mouse, plasma, mice, all doses and routes except the high oral dose (80 mg/kg), read-out: mean terminal half-life in plasma, range",0.699 to 1.66 h
same,concentration at 0.25 h,[14],4300 ng/mL
same,concentration at 0.25 h,[15],5710 ng/mL
same,concentration at 0.5 h,[15],8020 ng/mL
same,concentration at 1 h,[14],9900 ng/mL
same,concentration at 1 h,[15],9430 ng/mL
same,concentration at 2 h,[15],6170 ng/mL
same,concentration at 3 h,[15],3170 ng/mL
same,concentration at 4 h,"both sexes, ICR, mouse, plasma, oral, 20 mg/kg, 20 mg/kg i.g. bid, 7 days, 7th day, 4 h, read-out: plasma drug concentration, mean (n=6)",1590 ng/mL
same,concentration at 6 h,"both sexes, ICR, mouse, plasma, oral, 20 mg/kg, 20 mg/kg i.g. bid, 7 days, 7th day, 6 h, read-out: plasma drug concentration, mean (n=6)",453 ng/mL
same,concentration at 8 h,"both sexes, ICR, mouse, plasma, oral, 20 mg/kg, 20 mg/kg i.g. bid, 7 days, 7th day, 8 h, read-out: plasma drug concentration, mean (n=6)",58 ng/mL
same,concentration at 10 h,"both sexes, ICR, mouse, plasma, oral, 20 mg/kg, 20 mg/kg i.g. bid, 7 days, 7th day, 10 h, read-out: plasma drug concentration, individual mice #1-#6",58 ng/mL
same,concentration at 24 h,"both sexes, ICR, mouse, plasma, oral, 20 mg/kg, 20 mg/kg i.g. bid, 7 days, 7th day, 24 h, read-out: plasma drug concentration, individual mice #1-#6",54 ng/mL
same,concentration at 0.25 h,[16],7500 ng/mL
same,concentration at 0.5 h,[16],8140 ng/mL
same,concentration at 1 h,[16],4620 ng/mL
same,concentration at 2 h,[16],3980 ng/mL
same,concentration at 3 h,[16],2950 ng/mL
same,concentration at 4 h,"both sexes, ICR, mouse, plasma, oral, 20 mg/kg, 20 mg/kg i.g. single, 4 h, read-out: plasma drug concentration, mean (n=6)",526 ng/mL
same,concentration at 6 h,"both sexes, ICR, mouse, plasma, oral, 20 mg/kg, 20 mg/kg i.g. single, 6 h, read-out: plasma drug concentration, individual mice #1-#6",242 ng/mL
same,concentration at 8 h,"both sexes, ICR, mouse, plasma, oral, 20 mg/kg, 20 mg/kg i.g. single, 8 h, read-out: plasma drug concentration, individual mice #1-#6",194 ng/mL
same,concentration at 0.25 h,[17],4830 ng/mL
same,concentration at 0.5 h,[17],5310 ng/mL
